{"source": "paper PMC7830597", "about": "“Derivatives of Tenuazonic Acid as Potential New Multi-Target Anti-Alzheimer’s Disease Agents” (Biomolecules, 2021)", "key": {"[1]": {"test_system": "SH-SY5Y human neuroblastoma cells", "assay": "Neuroprotection against Aβ1-42-induced toxicity, MTT", "type": "cell-based", "settings": "Aβ1-42 2.5 μM 24 h; 1 h pre-incubation; compounds 1, 2 100 µM; 4 10 µM; 5 20 µM", "procedure": "(§1) SH-SY5Y human neuroblastoma cells (ATCC-CRL-2266) were seeded in DMEM/F12 (Dulbecco’s Modified Eagle Medium/Ham’s F-12 Nutrient Mixture; Thermo Fisher Scientific) with 10% heat inactivated fetal bovine serum, 50 U/mL penicillin and 50 U/mL streptomycin under a humidified atmosphere with 95% relative humidity at 37 °C at a 0.16 × 10^6 cells/mL density. Stock solutions from tested compounds (1, 2, 4 and 5) were prepared in DMSO at a 25 mM concentration and stored at −20 °C until needed. In order to select the highest non-toxic concentration, a dose-response screening was performed, where SH-SY5Y cells were exposed to the compounds for 25 h. The selected concentrations for each compound were: 75 µM final concentration for 1 and 2; 10 µM final concentration for 4 and 20 µM final concentration for 5. […] For the neuroprotection assays, the selected compounds were added to the cell media 1 hour prior to the incubation with Aβ1-42 or L-ascorbic acid/ferrous sulphate. Aβ1-42 or L-ascorbic acid/ferrous sulphate treatment was maintained for another 24 h. Aβ1-42 was prepared as 276.9 µM stock in sterile water and administrated in the medium at a 2.5 µM final concentration. Ferrous sulphate was freshly prepared as 0.36 M stock in water and added to the medium at 2.5 mM final concentration. L-ascorbic acid was freshly prepared as 80 mM stock in water and added to the medium at 5 mM final concentration. Aβ1-42 was purchased from Bachem (Torrance, CA, USA) and ferrous sulphate and L-ascorbic acid from Sigma Chemical Co (St. Louis, MO, USA).\n(§2) Cell viability was measured by using the MTT (3-(4,5-dimethylthiazol-2-yl)-2,5-diphenyl tetrazolium bromide) reduction assay. This test is based on the presence of succinate dehydrogenase enzyme in viable cells, that allows them to metabolize MTT into a formazan. After treatment, the medium was removed, and cells were washed with 1x PBS one time to remove dead cells. 200 µL of MTT solution (0.5 mg/mL) was added to each well and incubated for 2 h protected from light. Formazan precipitates were then dissolved in DMSO and absorbance measured at 570 nm. The ability to reduce MTT was expressed as a percentage of untreated control cells.\nOvernight cultures were treated with Aβ1-42 peptide (2.5 μM) for 24 h in the absence or in the presence of the compounds. When compounds were present, a pre-incubation of 1 h preceded the Aβ1-42 treatment. Cellular viability was determined by employing the MTT reduction assay. […] (compounds: 1, 2–100 µM; 4–10 µM; 5–20 µM)."}, "Aβ1-42": {"target": "T1, Aβ1-42 (Homo sapiens, UniProt P05067)", "T1 construct": "Amyloid β peptide (Aβ1-42) was purchased from GeneCust as a lyophilised powder; purchased GeneCust", "T1 sequence (P05067 672-713 limits assumed)": "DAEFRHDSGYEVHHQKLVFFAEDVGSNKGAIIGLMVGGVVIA", "assay": "Inhibition of Cu2+-induced Aβ1-42 aggregation, thioflavin T fluorescence", "type": "biochemical", "settings": "inhibitor 40 µM, copper 40 µM, read-out: Inhib. Aβ Aggreg. Cu2+-Induced", "procedure": "The anti-amyloidogenic activity of all the compounds was also evaluated in vitro, in the absence and in presence of Cu(II), by measuring the fluorescence emission of Thioflavin T (ThT). […] The Aβ self-aggregation inhibitory activity shown by all compounds is higher than that of parent compound TA, with the exception of compound 2 (probably due to solubility issues at the experimental conditions of the assays). The fact that the reference value previously reported by us for TA (50 ± 8%) was obtained for quite different conditions, including a much higher inhibitor concentration (100 μM instead of 40 μM) is noteworthy. […] This may be due to different electronic contributions between the ketone and the ester functions. Therefore, the ester derivatives seem to be better chelators compared to TA.\nThe spectrofluorimetric method, based on the fluorescence emission of thioflavin T (ThT), was used to study the Aβ1-42 aggregation inhibition. Firstly, Aβ1-42 was dissolved in HFIP (1,1,1,3,3,3-Hexafluoro-2-propanol) and kept overnight at room temperature in order to obtain a dry film. Then, the film was re-dissolved in CH3CN-Na2CO3 (300μM)/NaOH (250μM) (48.3/48.3/3.4 mL v/v/v) and then phosphate buffer (pH = 8) was added. The ligand solutions were prepared with MeOH (1mg/mL) and further with phosphate buffer. For the inhibition studies of copper-induced Aβ aggregation, a solution of CuCl2 240 μM was used. As a control, a solution of 30 μL of phosphate buffer and 30 μL of Aβ1-42 was used to observe the aggregation without any inhibition, while the ligand assay solutions were composed of 20 μL of phosphate buffer, 30 μL of Aβ1-42 and 10 μL of ligand. The Cu-induced aggregation studies were similarly conducted, adding 10 μL of CuCl2 to induce the fibril aggregation. Each experiment was composed of an assay and a blank sample, where the blank sample lacks Aβ1-42, to monitor the effect of the compounds on the fluorescence emission. The samples were left to incubate in a CERTOMAT WR water bath for 24 h at 37 °C with shaking. After 24 h, a Glycine-NaOH buffer (pH = 8.5) containing ThT were added to each sample in a microplate. The fluorescence signal was monitored at 446 nm (λexc) and 486 nm (λem) with a Varian Cary Eclipse fluorimeter. Amyloid β peptide (Aβ1-42) was purchased from GeneCust as a lyophilised powder and stored at −20 °C [12, 13, 14]."}, "[2]": {"test_system": "SH-SY5Y human neuroblastoma cells", "assay": "Dose-response cell viability screening, MTT reduction assay", "type": "cell-based", "settings": "for cytotoxicity on SH-SY5Y cell line: 10 μM to 100 μM, 24 h, at the active concentrations; for highest non-toxic concentration (selected concentration): SH-SY5Y cells exposed for 25 h", "procedure": "as §1, §2\nFigure 10 Dose-response screening of compounds 1, 2, 4 and 5 on SH-SY5Y neuronal cell line. Overnight cultures were treated with a range of concentrations from 10 μM to 100 μM for 24 h and cellular viability was determined by employing the MTT reduction assay."}}}
{"smiles": "CCOC(=O)C1=C(O)C(Cc2ccccc2)NC1=O", "note": "(centres unmarked) [Compound 2, Ethyl 5-benzyl-4-hydroxy-2-oxo-2,5-dihydro-1H-pyrrole-3-carboxylate]", "values": [{"measurement": "protection against Aβ1-42-induced toxicity", "setting": "[1]", "result": "do not confer protection"}, {"measurement": "inhibition at 40 µM", "setting": "Aβ1-42", "result": 28.2, "unit": "%"}, {"measurement": "cytotoxicity on SH-SY5Y cell line", "setting": "[2]", "result": "do not show (except for compound 4) cytotoxicity"}, {"measurement": "highest non-toxic concentration (selected concentration)", "setting": "[2]", "result": 75, "unit": "µM"}]}
{"smiles": "CCOC(=O)C1=C(O)C(C(C)C)NC1=O", "note": "(centres unmarked) [Compound 1, Ethyl 4-hydroxy-5-isopropyl-2-oxo-2,5-dihydro-1H-pyrrole-3-carboxylate]", "values": [{"measurement": "protection against Aβ1-42-induced toxicity", "setting": "[1]", "result": "do not confer protection"}, {"measurement": "inhibition at 40 µM", "setting": "Aβ1-42", "result": 36.6, "unit": "%"}, {"measurement": "cytotoxicity on SH-SY5Y cell line", "setting": "[2]", "result": "do not show (except for compound 4) cytotoxicity"}, {"measurement": "highest non-toxic concentration (selected concentration)", "setting": "[2]", "result": 75, "unit": "µM"}]}
